Reference: patent US20090197957A1, “Methods and compositions for the treatment of pain” (Nuon Therapeutics, Inc., priority 2005, published 2009)
Values joined by “and” are separate entries in the source; they are usually repeats but may differ in a detail not shown here. Identical values can stand only once.

Experiments:
[1] = test system: acetic acid-induced writhing; test: Analgesia, acetic acid writhing in mice (Example 3); assay type: in vivo, mouse; conditions: for No. of Writhing Average: group of 5 mice; for % Inhibition: relative to vehicle control; for No. of Writhing Individual: single mice
Protocol: 3-Hydroxyanthranilic acid was evaluated for possible analgesic activity in mouse acetic acid-induced pain response assay.
3-Hydroxyanthranilic acid was purchased from Sigma (USA) by MDS Pharma Services-Taiwan Ltd. and administered orally at the doses of 400, 200 and 100 mg/kg for analgesia, acetic acid-induced writhing assay. 2% Tween 80 was used as the vehicle.
Male CD-1 (Crl.) mice provided by BioLasco Taiwan (under Charles River Laboratories Technology Licensee) were used. Space allocation for 10 animals was 29×18×13 cm. All animals were maintained in a controlled temperature (23° C.-24° C.) and humidity (60%-70%) environment with 12 hours light dark cycles for at least one week in MDS Pharma Services—Taiwan Laboratory prior to use. Free access to standard lab chow for Mice (LabDiet Rodent Diet, PMI Nutrition International, USA) and tap water was granted. All aspects of this work including housing, experimentation and disposal of animals were performed in general accordance with the Guide for the Care and Use of Laboratory Animals (National Academy Press, Washington, D.C., 1996).
Test substance was administered orally to groups of 5 CD-1 (Crl.) derived male or female mice weighing 24±2 g, 2 hour before injection of acetic acid (0.5%, 20 ml/kg IP). Reduction in the number of writhes by 50 percent or more (≧50%) per group of animals observed during the 5 to 10 minute period after acetic acid administration, relative to a vehicle-treated control group, indicates possible analgesic activity.
Test substance was administered orally to groups of 5 mice 1 hour before injection of 0.5% Acetic Acid (20 ml/kg IP). The number of writhing per group of animals observed during the 5 to 10 minute period after acetic acid challenge was observed. Reduction in the number of writhing by 50 percent or more (≧50%) relative to the vehicle-treated control group indicates possible analgesic activity.

Cyclooxygenase COX-1 = Cyclooxygenase COX-1 (Homo sapiens, UniProt P23219); test: biochemical
Protocol: Methods employed in this study have been adapted from the scientific literature to maximize reliability and reproducibility. […] Assays were performed under conditions described in the accompanying “Methods” section of this report. The literature references for each assay are in the “Literature References” section. If either of these sections were not originally requested with the accompanying report, please contact us at the number below for a printout of either of these report sections.
Biochemical assay results are presented as the percent inhibition of specific binding or activity throughout the report.

[2] = test system: draining (inguinal) lymph node cells; test: Lymph node cell cytokine responses from treated CIA mice (72 h culture, ELISA); assay type: in vivo
Protocol: FIG. 4 is a graphical representation of the results of mice with established CIA being treated for 10 days with 3,4-DAA or vehicle control. Mice were then killed and draining (inguinal) lymph node cells were cultured for 72 h in the absence or presence of type II collagen.
Inguinal lymph nodes were excised from 3,4-DAA-treated and control mice. Alternatively, inguinal lymph nodes were removed from untreated arthritic mice (day 1-5 of arthritis) and 3,4-DAA was added in vitro. In both cases, a single cell suspension was prepared and LNC were cultured in RPMI 1640 containing FCS (10% v/v), 2-mercaptoethanol (20 μM), L-glutamine (1% w/v), penicillin (100 U/ml) and streptomycin (100 μg/ml) in the presence or absence of type II collagen (50 μg/ml). Secreted cytokines (IFN-γ, IL-5, and IL-10) were measured after 72 h. by ELISA. In brief, 96 well ELISA plates were coated with the respective capture antibody, blocked with bovine serum albumin (2% w/v), and then incubated with LNC culture supernatants overnight at 4° C. After washing, bound cytokines were detected using biotinylated detect antibodies. A standard curve was generated using known concentrations of the appropriate recombinant cytokine and the concentrations of cytokines present in culture supernatants were estimated by reference to the standard curve.
At the end of the experiment draining (inguinal) LNC from control and treated mice were cultured for 72 h in the presence or absence of type II collagen. IFN-γ, IL-5 and IL-10 production was measured by ELISA.

Sequence of Cyclooxygenase COX-1 (P23219 24-599): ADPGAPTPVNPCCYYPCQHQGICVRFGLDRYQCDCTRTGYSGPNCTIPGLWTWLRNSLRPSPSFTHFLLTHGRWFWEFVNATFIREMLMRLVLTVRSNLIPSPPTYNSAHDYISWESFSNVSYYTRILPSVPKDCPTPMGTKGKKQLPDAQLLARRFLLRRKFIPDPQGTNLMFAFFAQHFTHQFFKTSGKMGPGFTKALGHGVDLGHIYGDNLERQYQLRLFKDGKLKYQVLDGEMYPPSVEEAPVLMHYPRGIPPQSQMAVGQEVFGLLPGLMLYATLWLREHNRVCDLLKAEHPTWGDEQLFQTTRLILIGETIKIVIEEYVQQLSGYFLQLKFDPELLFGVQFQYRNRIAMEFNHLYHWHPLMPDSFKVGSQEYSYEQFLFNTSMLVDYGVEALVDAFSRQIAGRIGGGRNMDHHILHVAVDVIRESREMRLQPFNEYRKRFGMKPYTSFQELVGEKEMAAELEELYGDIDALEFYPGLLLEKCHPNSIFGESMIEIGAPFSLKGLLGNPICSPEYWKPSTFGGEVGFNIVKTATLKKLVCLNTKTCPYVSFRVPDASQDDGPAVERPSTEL

Row | effect on the activity of the COX-1 enzyme (Cyclooxygenase COX-1) | inhibition at 10 µM (Cyclooxygenase COX-1) | Structure (SMILES) | No. of Writhing Average ([1]; 100 mg/kg PO) | % Inhibition ([1]; 100 mg/kg PO) | No. of Writhing Individual ([1]; 100 mg/kg PO) | No. of Writhing Average ([1]; 200 mg/kg PO) | % Inhibition ([1]; 200 mg/kg PO) | No. of Writhing Individual ([1]; 200 mg/kg PO) | No. of Writhing Individual ([1]; 400 mg/kg PO before acetic acid (0.5%, 20 ml/kg IP), 5 to 10 minute period) | No. of Writhing Average ([1]; 400 mg/kg PO) | % Inhibition ([1]; 400 mg/kg PO) | significant analgesic activity (≧50% inhibition of writhing relative to vehicle) ([1]; 400, 200 and 100 mg/kg PO) | differences between the groups in cytokine production on re-stimulation with collagen ([2]; 72 h culture in presence of type II collagen) | IFN-γ production by lymph node cells ([2]; mice given 400 mg/kg (b205 prints 400 mg/mouse) for 10 days, 72 h culture without collagen) | IL-10 production by lymph node cells ([2]; mice treated for 10 days, 72 h culture)
1 | – | – | Nc1c(O)cccc1C(=O)O [3-Hydroxyanthranilic acid] | 13 | 0% | 18 and 12 (2×) and 13 and 10 | 12 | 8% | 16 and 9 and 12 and 10 and 15 | 5 (2×) and 6 and 14 and 12 | 8 | 38% | did not demonstrate any significant analgesic activity | – | – | –
2 | no effect | -2% | COc1ccc(/C=C/C(=O)Nc2ccccc2C(=O)O)cc1OC [Tranilast, 2-[[3-(3,4-dimethoxyphenyl)-1-oxo-2-propenyl]amino]benzoic acid] | – | – | – | – | – | – | – | – | – | – | not significant | significantly reduced | no IL-10 was detected
